Reference: ChEMBL document CHEMBL1131148, “Synthesis and modeling studies of a potent conformationally rigid muscarinic agonist: 1-azabicyclo[2.2.1]heptanespirofuranone” (J Med Chem, 1998)

Experiments:
[1] = biological target: Muscarinic acetylcholine receptor; experiment: Binding affinity against Muscarinic acetylcholine receptor using [3H]-OXO-M as the radioligand.; format: protein assay, Rattus norvegicus
Rattus norvegicus = species: Rattus norvegicus; experiment: Stimulation of phosphatidyl inositol(PI) hydrolysis as compared to that of carbachol, was determined in rat hippocampal slices; format: functional, Hippocampus

Row | SMILES | Ki [1] | Intrinsic activity (Rattus norvegicus)
1 | C[C@H]1OCC2(CN3CCC2C3)O1 (stereo not given in full) | 14 nM | 75%
2 | C[C@@H]1O[C@@]2(CC1=O)CN1CCC2C1 (stereo not given in full) | 0.8 nM | 81%
3 | CC[C@@H]1O[C@@]2(CC1=O)CN1CCC2C1 (stereo not given in full) | 0.4 nM | 47%
4 | C[N+](C)(C)CCOC(N)=O.[Cl-] [CARBACHOL] |  | 100%
5 | CCC[C@H]1O[C@@]2(CC1=O)CN1CCC2C1 (stereo not given in full) | 2 nM | 0%
6 | CC1OC2(CCN(C)CC2)CC1=O (stereo not given) | 6.7 nM | 51%
7 | CN1O[C@@]2(CC1=O)CN1CCC2C1 (stereo not given in full) | 4 nM | 22.6%
8 | Cc1noc(C2CN3CCC2C3)n1 (stereo not given) | 0.2 nM | 106%
9 | CCC[C@@H]1O[C@@]2(CC1=O)CN1CCC2C1 (stereo not given in full) | 2 nM | 0%
10 | CC1O[C@@]2(CC1=O)CN1CCC2CC1 (stereo not given in full) |  | 9%
11 | CC[C@H]1O[C@@]2(CC1=O)CN1CCC2C1 (stereo not given in full) | 3.7 nM | 39%
